In US9657006B2, “Macrocyclic factor VIIa inhibitors” (BRISTOL-MYERS SQUIBB COMPANY, priority 2013, dated 2017) one finds Ki data, which are given here for 27 compounds.

Counter-ions that a name gives are not always drawn.

For orientation: Ki means a dissociation constant, usually derived from enzyme kinetics or from competition with a known ligand. A lower Ki goes with higher affinity.

T1 sequence (P08709 213-466 limits assumed): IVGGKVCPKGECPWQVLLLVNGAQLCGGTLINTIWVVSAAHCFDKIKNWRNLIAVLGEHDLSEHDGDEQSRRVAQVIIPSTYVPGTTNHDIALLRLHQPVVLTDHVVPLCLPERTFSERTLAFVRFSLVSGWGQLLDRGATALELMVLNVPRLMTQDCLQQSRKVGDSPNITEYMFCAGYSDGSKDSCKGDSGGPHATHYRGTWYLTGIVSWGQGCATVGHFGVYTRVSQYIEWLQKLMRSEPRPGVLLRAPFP
T1 sequence (P08709 61-212 limits assumed): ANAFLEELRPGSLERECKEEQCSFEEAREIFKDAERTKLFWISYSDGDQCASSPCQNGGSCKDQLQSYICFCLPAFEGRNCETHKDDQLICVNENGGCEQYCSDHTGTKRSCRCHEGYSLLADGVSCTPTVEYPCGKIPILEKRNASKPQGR
T1 sequence (P13726 33-295 partner): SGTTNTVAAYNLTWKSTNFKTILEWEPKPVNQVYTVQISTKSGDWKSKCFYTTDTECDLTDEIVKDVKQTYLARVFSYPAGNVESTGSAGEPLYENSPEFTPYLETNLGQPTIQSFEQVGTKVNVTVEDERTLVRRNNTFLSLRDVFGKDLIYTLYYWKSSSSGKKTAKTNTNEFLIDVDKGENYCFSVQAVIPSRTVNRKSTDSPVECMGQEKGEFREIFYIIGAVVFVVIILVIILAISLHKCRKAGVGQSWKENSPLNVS

The test has as its target T1, FVIIa (Homo sapiens, UniProt P08709).
T1 construct: with about 1% of the total amount in the proteolytically active form factor VIIa
In words: FVIIa Ki (25° C.): FVIIa peptide substrate assay. It counts as biochemical. The following applies: S2288 peptide substrate, full-length human TF. The method, then: The effectiveness of compounds of the present invention as inhibitors of the coagulation Factors, VIIa, IXa, Xa, XIa, XIIa, plasma kallikrein or thrombin, tissue kallikrein and activated protein C, can be determined using a relevant purified serine protease, respectively, and an appropriate synthetic substrate. The rate of hydrolysis of the chromogenic or fluorogenic substrate by the relevant serine protease was measured both in the absence and presence of compounds of the present invention. […] A decrease in the rate of absorbance or fluorescence change in the presence of inhibitor is indicative of enzyme inhibition. Such methods are known to one skilled in the art. The results of this assay are expressed as the inhibitory constant, Ki.
a. FVIIa Ki (25° C.): FVIIa Peptide Substrate Assay
S2288 (range of concentrations) and FVIIa inhibitor were incubated for 15 minutes (min) at 25° C. Reactions were initiated by addition of a solution of full-length human TF (6 nM), FVIIa (0.75 nM), and PCPS (25 μM). FVIIa hydrolyses S2288, which was monitored for up to 60 min at 405 nm. Steady-state reaction velocity data (vs) was globally fit to Equation 1 for competitive inhibition. vs=Vmax[S]/([S]+Km(1+[I]/Ki)) (Eq. 1) where Vmax is maximum velocity, [S] is substrate concentration, Km is the Michaelis-Menten constant, [I] is the inhibitor concentration, and Ki is the inhibitor dissociation constant (GraFit, version 5, Erithacus Software Ltd, West Sussex, UK).
In turn, `CCCCOc1ccc2cc1CCC(=O)Nc1ccc(S(=O)(=O)C3CC3)c(c1)CN(C)C(=O)[C@@H]2Nc1ccc2c(N)ncc(F)c2c1` [Example 23, (R)-11-(1-Amino-4-fluoro-isoquinolin-6-ylamino)-7-butoxy-16-cyclopropanesulfonyl-13-methyl-2,13-diaza-tricyclo[13.3.1.1^6,10]icosa-1(19),6,8,10(20),15,17-hexaene-3,12-dione trifluroracetic acid salt] showed a Ki of 5 nM. This lies in the single-digit nanomolar range.
The compound `COc1ccc2cc1[C@H](C)CN(C)C(=O)Nc1ccc(S(=O)(=O)C3CC3)c(c1)CN(C)C(=O)C2Nc1ccc2c(N)nccc2c1` (mixture of isomers) [Example 12, (S)-5-(1-Amino-isoquinolin-6-ylamino)-19-cyclopropanesulfonyl-9-methoxy-3,11,13-trimethyl-3,13,15-triaza-tricyclo[14.3.1.1^6,10]henicosa-1(20),6(21),7,9,16,18-hexaene-4,14-dione trifluoroacetic acid salt] yielded a Ki of 47 nM. This Ki is about 9.4-fold higher than that of the compound before.
In the case of `C[C@@H]1CC(=O)Nc2cccc(c2)[C@@H](CC(=O)O)NC(=O)[C@H](Nc2ccc(C(=N)N)cc2)c2ccc(OCC(F)F)c1c2` [Example 44, trifluoroacetic acid salt], the affinity corresponds to a Ki of 5 nM.
With `C[C@@H]1CC(=O)Nc2ccc(S(=O)(=O)C3CC3)c(c2)CN(C)C(=O)[C@H](Nc2ccc3c(N)ncc(F)c3c2)c2ccc(OCC(F)F)c1c2` (single isomer, unassigned) [Example 38, trifluoroacetic acid salt] the figure was 5 nM; with `CN1CCc2cccc(c2)[C@@H](Nc2ccc3c(N)ncc(F)c3c2)C(=O)N(C)Cc2cc(ccc2S(=O)(=O)C2CC2)NC1=O` (single isomer, unassigned) [Example 28], 14 nM; with `CC(C)Oc1ccc2cc1CCC(=O)Nc1ccc(S(=O)(=O)C3CC3)c(c1)CN(C)C(=O)[C@@H]2Nc1ccc2c(N)ncc(F)c2c1` [Example 26, (R)-11-(1-Amino-4-fluoro-isoquinolin-6-ylamino)-16-cyclopropanesulfonyl-7-isopropoxy-13-methyl-2,13-diaza-tricyclo[13.3.1.1^6,10]icosa-1(19),6,8,10(20),15,17-hexaene-3,12-dione trifluroracetic acid salt], 5 nM.
With `CN1Cc2cc(ccc2S(=O)(=O)C2CC2)NC(=O)COc2cccc(c2)[C@@H](Nc2ccc3c(N)nccc3c2)C1=O` [Example 10, (R)-14-(1-Amino-isoquinolin-6-ylamino)-9-cyclopropanesulfonyl-12-methyl-2-oxa-5,12-diaza-tricyclo[13.3.1.1^6,10]icosa-1(18),6(20),7,9,15 (19),16-hexaene-4,13-dione trifluoroacetic acid salt+Enantiomer] the figure was 714 nM; with `CN1Cc2cc(ccc2S(=O)(=O)C2CC2)NC(=O)N(Cc2ccccc2)CCc2cccc(c2)[C@@H](Nc2ccc3c(N)ncc(F)c3c2)C1=O` (single isomer, unassigned) [Example 29], 80 nM; with `CN1Cc2cc(ccc2S(=O)(=O)C2CC2)NC(=O)CCc2cc(ccc2OCC(F)F)[C@@H](Nc2ccc3c(N)ncc(F)c3c2)C1=O` [Example 21, (R)-11-(1-Amino-4-fluoro-isoquinolin-6-ylamino)-16-cyclopropane sulfonyl-7-(2,2-difluoro-ethoxy)-13-methyl-2,13-diaza-tricyclo[13.3.1.1^6,10]icosa-1(19),6,8,10(20),15,17-hexaene-3,12-dione trifluroracetic acid salt], 5 nM.
With `CN1CCc2cccc(c2)[C@@H](Nc2ccc(C(=N)N)cc2)C(=O)N(C)Cc2cc(cc(F)c2OC(F)F)NC1=O` (single isomer, unassigned) [Example 35, trifluoroacetic acid salt] the figure was 6 nM; with `CN1Cc2cc(ccc2S(=O)(=O)C2CC2)NC(=O)OCC2(CC2)c2cccc(c2)C(Nc2ccc3c(N)nccc3c2)C1=O` (stereo not drawn) [Example 5, trifluoroacetic acid salt], 950 nM; with `COc1ccc2cc1CCC(=O)Nc1ccc(S(=O)(=O)C3CC3)c(c1)CN(C)C(=O)[C@@H]2Nc1ccc2c(N)ncc(F)c2c1` (single isomer, unassigned) [Example 11], 5 nM.
Take `CN1Cc2cc(ccc2S(=O)(=O)C2CC2)NC(=O)CCc2cc(ccc2OCC2CCC2)[C@@H](Nc2ccc3c(N)ncc(F)c3c2)C1=O` [Example 25, (R)-11-(1-Amino-4-fluoro-isoquinolin-6-ylamino)-7-cyclobutylmethoxy-16-cyclopropanesulfonyl-13-methyl-2,13-diaza-tricyclo[13.3.1.1^6,10]icosa-1(19),6,8,10(20),15,17-hexaene-3,12-dione trifluroracetic acid salt]: affinity was put at a Ki of 6 nM.
For `CN1Cc2cc(ccc2S(=O)(=O)C2CC2)NC(=O)OCc2cccc(c2)[C@@H](Nc2ccc3c(N)nccc3c2)C1=O` (single isomer, unassigned) [Example 3], affinity was put at a Ki of 560 nM.
The compound `CN1Cc2cc(ccc2S(=O)(=O)C2CC2)NC(=O)CCc2cccc(c2)[C@@H](Nc2ccc3c(N)ncc(F)c3c2)C1=O` (single isomer, unassigned) [Example 17] showed a Ki of 7 nM. This Ki is about 80-fold lower than that of the compound before.
The value for `CN1Cc2cc(ccc2S(=O)(=O)C2CC2)NC(=O)CCc2cc(ccc2F)[C@@H](Nc2ccc3c(N)ncc(F)c3c2)C1=O` (single isomer, unassigned) [Example 14] was 5 nM.
The value for `COc1cc2cc(c1)[C@@H](Nc1ccc3c(N)ncc(F)c3c1)C(=O)N(C)Cc1cc(ccc1S(=O)(=O)C1CC1)NC(=O)CC2` (single isomer, unassigned) [Example 15] was 6 nM.
The value for `CN1Cc2cc(ccc2S(=O)(=O)C2CC2)NC(=O)N(CC2CCC2)CCc2cccc(c2)C(Nc2ccc3c(N)ncc(F)c3c2)C1=O` (stereo not drawn) [Example 27, 5-(1-Amino-4-fluoro-isoquinolin-6-ylamino)-13-cyclobutylmethyl-19-cyclopropanesulfonyl-3-methyl-3,13,15-triaza-tricyclo[14.3.1.1^6,10]henicosa-1(19),6(21),7,9,16(20),17-hexaene-4,14-dione trifluoroacetic acid salt] was 148 nM; that for `CN1Cc2cc(ccc2S(=O)(=O)C2CC2)NC(=O)CCc2cc(ccc2OCC2CC2)[C@@H](Nc2ccc3c(N)ncc(F)c3c2)C1=O` [Example 22, (R)-11-(1-Amino-4-fluoro-isoquinolin-6-ylamino)-16-cyclopropane sulfonyl-7-cyclopropylmethoxy-13-methyl-2,13-diaza-tricyclo[13.3.1.1^6,10]icosa-1(19),6,8,10(20),15,17-hexaene-3,12-dione trifluroracetic acid salt] was 5 nM; that for `CN1Cc2cc(ccc2S(=O)(=O)C2CC2)NC(=O)OCC(C)(C)c2cccc(c2)[C@@H](Nc2ccc3c(N)nccc3c2)C1=O` (single isomer, unassigned) [Example 4] was 1480 nM.
As for “(R)-11-(1-Amino-4-fluoro-isoquinolin-6-ylamino)-16-cyclopropane sulfonyl-7-(2,2-difluoro-ethoxy)-13-methyl-2,13-diaza-tricyclo[13.3.1.1^6,10]icosa-1(18),6,8,10(20),15(19),16-hexaene-3,12-dione trifluoroacetic acid salt [Example 33]”, the affinity, expressed as Ki, was 21 nM.
The value for `COc1ccc2cc1CCOC(=O)Nc1ccc(S(=O)(=O)C3CC3)c(c1)CN(C)C(=O)[C@@H]2Nc1ccc2c(N)nccc2c1` (single isomer, unassigned) [Example 6] was 44 nM; that for `CN1Cc2cc(ccc2S(=O)(=O)C2CC2)NC(=O)NCCc2cccc(c2)[C@@H](Nc2ccc3c(N)ncc(F)c3c2)C1=O` (single isomer, unassigned) [Example 41, trifluoroacetic acid salt] was 17 nM; that for `CN1CCc2cc(ccc2OCC(F)F)[C@@H](Nc2ccc3c(N)ncc(F)c3c2)C(=O)N(C)Cc2cc(ccc2S(=O)(=O)C(F)F)NC1=O` (single isomer, unassigned) [Example 39, trifluoroacetic acid salt] was 120 nM.
As to `C[C@@H]1CC(=O)Nc2ccc(OC(F)F)c(c2)CN(C)C(=O)[C@H](Nc2ccc(C(=N)N)cc2)c2ccc(OCC(F)F)c1c2` (single isomer, unassigned) [Example 43, trifluoroacetic acid salt], the Ki was 5 nM.
With `CN1Cc2cc(ccc2S(=O)(=O)C2CC2)NC(=O)OCCc2cccc(c2)[C@@H](Nc2ccc3c(N)nccc3c2)C1=O` [Example 1, (R)-5-(1-Amino-isoquinolin-6-ylamino)-19-cyclopropanesulfonyl-3-methyl-13-oxa-3,15-diaza-tricyclo[14.3.1.1^6,10]henicosa-1(19),6(21),7,9,16(20),17-hexaene-4,14-dione trifluoroacetic acid salt+Enantiomer] the figure was 188 nM.
With `CC(C)COc1ccc2cc1CCC(=O)Nc1ccc(S(=O)(=O)C3CC3)c(c1)CN(C)C(=O)[C@@H]2Nc1ccc2c(N)ncc(F)c2c1` [Example 24, (R)-11-(1-Amino-4-fluoro-isoquinolin-6-ylamino)-16-cyclopropanesulfonyl-7-isobutoxy-13-methyl-2,13-diaza-tricyclo[13.3.1.1^6,10]icosa-1(19),6,8,10(20),15,17-hexaene-3,12-dione trifluroracetic acid salt] the figure was 5 nM.
